Measured values published in patent US6806230B1, “Pyrimidine derivatives and herbicides containing them” (Kumiai Chemical Industry Co., Ltd., priority 1999, dated 2004).

Tests used:
Assay type in all cases: in vivo
barnyard grass (Ec) [1] = assay: Test Example 3: herbicidal effects by foliage treatment in upland field; set-up: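 0-5 growth inhibition grade; 5 = over 90%; 4 = 70-90%; 3 = 50-70%; 2 = 30-50%; 1 = 10-30%; 0 = under 10%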; details: dose 100 g active ingredient per 10 ares, examined on the 14th day after treatment
How it was run: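 Barnyard grass and green foxtail were grown in upland soil for 2 weeks in a greenhouse. A water-diluted wettable powder was sprayed over the foliage at 100 l per 10 ares, giving 100 g active ingredient per 10 ares. Herbicidal effect was scored on day 14 after treatment.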

barnyard grass (Eo) [2] = assay: Test Example 1: herbicidal effects by flooded paddy field treatment; set-up: herbicidal effects, Eo (barnyard grass):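 0-5 growth inhibition grade; 5 = over 90%; 4 = 70-90%; 3 = 50-70%; 2 = 30-50%; 1 = 10-30%; 0 = under 10%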; details: for Herbicidal effect index, Eo: dose 100 gai/10a, examined on 21st day after treatment, index 0-5 per Table 44; for herbicidal effects, Eo (barnyard grass): dose 100 g active ingredient per 10 ares, examined on the 21st day after treatment, standards of Table 44;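 as to Herbicidal effect index, Eo: 0-5 growth inhibition grade; 5 = over 90%; 4 = 70-90%; 3 = 50-70%; 2 = 30-50%; 1 = 10-30%; 0 = under 10%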
How it was run: (§1)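 Herbicidal effect scored 21 days post-treatment after greenhouse cultivation. Treatment was applied dropwise to the water surface, one day after sowing, as a diluted wettable powder (100 g a.i./10 ares). Pots held puddled paddy soil under 3 cm water.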

barnyard grass (Ec) [3] = assay: Test Example 2: herbicidal effects by upland soil treatment; set-up: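 0-5 growth inhibition grade; 5 = over 90%; 4 = 70-90%; 3 = 50-70%; 2 = 30-50%; 1 = 10-30%; 0 = under 10%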; details: dose 100 g active ingredient per 10 ares, examined on the 21st day after treatment, standards of Table 44
How it was run: (§2)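 Pre-emergence test: barnyard grass and green foxtail sown in upland soil, then soil surface sprayed with wettable-powder formulation at 100 g active ingredient per 10 ares (100 l per 10 ares). Grown in greenhouse; herbicidal effect scored on a rating scale 21 days after treatment.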

monochoria (Mo) [4] = assay: Test Example 1: herbicidal effects by flooded paddy field treatment; set-up: herbicidal effects, Mo (monochoria):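 0-5 growth inhibition grade; 5 = over 90%; 4 = 70-90%; 3 = 50-70%; 2 = 30-50%; 1 = 10-30%; 0 = under 10%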; details: for Herbicidal effect index, Mo: dose 100 gai/10a, examined on 21st day after treatment, index 0-5 per Table 44; for herbicidal effects, Mo (monochoria): dose 100 g active ingredient per 10 ares, examined on the 21st day after treatment, standards of Table 44;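 as to Herbicidal effect index, Mo: 0-5 growth inhibition grade; 5 = over 90%; 4 = 70-90%; 3 = 50-70%; 2 = 30-50%; 1 = 10-30%; 0 = under 10%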
How it was run: as §1

green foxtail (Se) = assay: Test Example 2: herbicidal effects by upland soil treatment; details: dose 100 g active ingredient per 10 ares, examined on the 21st day after treatment, standards of Table 44;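 also: 0-5 growth inhibition grade; 5 = over 90%; 4 = 70-90%; 3 = 50-70%; 2 = 30-50%; 1 = 10-30%; 0 = under 10%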
How it was run: as §2

barnyard grass (Eo) [5] = assay: Test Example 4: selectivity for a crop plant by flooded paddy field treatment; set-up: scale not given here; details: for Eo (herbicidal effect index): barnyard grass, dose 25 gai/10a, 21st day after treatment, index per Table 44
How it was run: (§3)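 Flooded-paddy treatment: the wettable powder formulation, diluted in water, was applied dropwise to 3 cm floodwater at 25 g a.i./10 ares one day after sowing barnyard grass and monochoria and transplanting rice at the second leaf stage. Greenhouse grown; herbicidal effect rated against set standards on day 21.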

rice (Or) = assay: as above; set-up: scale not given here; details: rice transplanted at second leaf stage; for Or (herbicidal effect index on crop): dose 25 gai/10a, 21st day after treatment, index per Table 44
How it was run: as §3

monochoria (Mo) [6] = assay: as above; set-up: scale not given here; details: for Mo (herbicidal effect index): monochoria, dose 25 gai/10a, 21st day after treatment, index per Table 44
How it was run: as §3

[7] = dose 25 g active ingredient per 10 ares, examined on the 21st day after treatment

SMILES | Ec (herbicidal effects, index) (barnyard grass (Ec) [1]) | Herbicidal effect index, Eo (barnyard grass (Eo) [2]) | herbicidal effects, Ec (barnyard grass) (barnyard grass (Ec) [3]) | Herbicidal effect index, Mo (monochoria (Mo) [4]) | herbicidal effects, Se (green foxtail) (green foxtail (Se)) | herbicidal effects, Eo (barnyard grass) (barnyard grass (Eo) [2]) | herbicidal effects, Mo (monochoria) (monochoria (Mo) [4]) | Eo (herbicidal effect index) (barnyard grass (Eo) [5]) | Or (herbicidal effect index on crop) (rice (Or)) | Mo (herbicidal effect index) (monochoria (Mo) [6]) | Eo (herbicidal effects, index) (barnyard grass (Eo) [5]; [7]) | Or (effect on crop plant rice, index) (rice (Or); [7]) | Mo (herbicidal effects, index) (monochoria (Mo) [6]; [7])
CC(C)C(c1cncnc1C(F)(F)F)N(C)C(=O)Cc1ccc(OC(F)F)cc1 (racemic) [Compound 1-96] | 5 | 5 | 5 | 5 | 5 | – | – | – | – | – | – | – | –
CC(C)C(c1cncnc1C(F)(F)F)N(C)C(=O)Sc1ccccc1 (racemic) [Compound 1-10] | 4 | 5 | 4 | 5 | 4 | – | – | – | – | – | – | – | –
CC(C)C(c1cncnc1C(F)(F)F)N(C)C(=O)COc1ccc(F)cc1 (racemic) [Compound 1-127] | 4 | 5 | 5 | 5 | 5 | – | – | – | – | – | – | – | –
CC(C)C(c1cncnc1C(F)(F)F)N(C)C(=S)Cc1ccc(F)cc1 (racemic) [Compound 1-143] | 4 | – | 5 | – | 5 | 5 | 5 | – | – | – | – | – | –
CC(C(=O)N(C)C(c1cncnc1C(F)(F)F)C(C)C)c1ccc(F)cc1 (mixture of isomers) [1-198] | 4 | – | 5 | – | 5 | 5 | 5 | – | – | – | – | – | –
CC(C)c1ncncc1C(c1ccccc1)N(C)C(=O)Cc1ccc(F)cc1 (racemic) [1-214] | 4 | – | 5 | – | 5 | 5 | 5 | – | – | – | – | – | –
CCN(C(=O)Cc1ccc(F)cc1)C(c1cncnc1C(F)(F)F)C(C)C (racemic) [Compound 1-27] | 4 | 5 | 5 | 5 | 5 | – | – | – | – | – | – | – | –
CC(C)C(c1cncnc1C(F)F)N(C)C(=O)Cc1ccc(F)cc1 (racemic) [Compound 1-164] | 4 | – | 5 | – | 5 | 5 | 5 | – | – | – | – | – | –
Cc1ncncc1C(C(C)C)N(C)C(=O)Cc1ccc(F)cc1 (racemic) [Compound 1-88] | 4 | 5 | 5 | 5 | 5 | – | – | – | – | – | – | – | –
CCCC(c1cncnc1C(F)(F)F)N(C)C(=O)Cc1ccc(F)cc1 (racemic) [Compound 1-112] | 4 | 5 | 5 | 5 | 5 | – | – | – | – | – | – | – | –
C#CCN(C(=O)Cc1ccccc1)C(c1cncnc1C(F)(F)F)C(C)C (racemic) [1-193] | 5 | – | 5 | – | 5 | 5 | 5 | – | – | – | – | – | –
CC(C)C(c1cncnc1C(F)(F)F)N(C)C(=O)Cc1ccc(F)c(F)c1 (racemic) [Compound 1-122] | 4 | 5 | 5 | 5 | 5 | – | – | – | – | – | – | – | –
CC(C)C(c1cncnc1C(F)(F)F)N(C)C(=O)Cc1cccc(F)c1 (racemic) [Compound 1-66] | 5 | 5 | 5 | 5 | 5 | – | – | – | – | – | – | – | –
CN(C(=O)Cc1ccccc1)C(c1cncnc1C(F)(F)F)C(C)(C)C (racemic) [1-196] | 5 | – | 5 | – | 5 | 5 | 5 | – | – | – | – | – | –
CC(C)C(c1cncnc1C(F)(F)F)N(C)C(=O)Cc1ccc(C(F)(F)F)cc1 (racemic) [Compound 1-24] | 4 | 5 | 5 | 5 | 5 | – | – | – | – | – | – | – | –
COc1ccc(C(C)C(=O)N(C)C(c2cncnc2C(F)(F)F)C(C)C)cc1 (mixture of isomers) [1-192] | 4 | – | 5 | – | 5 | 5 | 5 | – | – | – | – | – | –
CN(C(=O)Cc1ccc(F)cc1)C(c1cncnc1C(F)(F)Cl)C1CC1 (racemic) [Compound 1-92] | 5 | – | 5 | – | 5 | – | – | – | – | – | – | – | –
CC(C)C(c1cncnc1C(F)(F)F)N(C)C(=O)Cc1ccc(F)cc1 (racemic) [Compound 1-12] | 5 | 5 | 5 | 5 | 5 | – | – | – | – | – | – | – | –
CCC(C)C(c1cncnc1C(F)(F)F)N(C)C(=O)Cc1ccccc1 (mixture of isomers) [Compound 1-57] | 5 | 5 | 5 | 5 | 5 | – | – | – | – | – | – | – | –
CC(C(=O)N(C)C(c1cncnc1C(F)(F)F)C(C)C)c1ccccc1 (mixture of isomers) [1-195] | 5 | – | 5 | – | 5 | 5 | 5 | – | – | – | – | – | –
CCCN(C(=O)Cc1ccc(F)cc1)C(c1cncnc1C(F)(F)F)C(C)C (racemic) [1-181] | – | – | 5 | – | 5 | 5 | 5 | 5 | 1 | 5 | – | – | –
CC(C)C(c1cncnc1C(F)(F)F)N(C)C(=O)CSc1ccccc1 (racemic) [1-182] | – | – | 5 | – | 5 | 5 | 5 | 5 | 1 | 5 | – | – | –
CC(C)C(c1cncnc1C(F)(F)F)N(C)C(=O)Cc1ccc([N+](=O)[O-])cc1 (racemic) [Compound 1-52] | – | 5 | 5 | 5 | 5 | – | – | – | – | – | 5 | 1 | 5
